From patent publication US8697391B2, “Method of determining cell number or viability using hydroxyethyldisulfide” (priority 2009, dated 2014)

Experiments:
live cells = test: Toxicity of HEDS to live cells; assay type: cell-based; details: live cells reducing HEDS to mercaptoethanol
Description: In a particular embodiment, the assay of the instant invention use hydroxyethyldisulfide (HEDS), a unique non-toxic disulfide, to measure glucose dependent metabolic activity of live cells in vitro. The survival of cells is directly proportional to the conversion of HEDS into mercaptoethanol (ME) by metabolically active live cells. Dead cells fail to convert HEDS into mercaptoethanol. Accordingly, the assays of the instant invention generally encompass contacting cells (e.g., live cells) with HEDS and then monitoring or measuring the amount of extracellular ME. The amount of ME produced from HEDS can be measured in the extracellular medium since ME is extruded out quickly into the extracellular medium. Extracellular ME may be measured, for example, by a dithiobiznitrobenzoic acid (DTNB) assay or High Performance Liquid Chromatography/Electrochemical Detection (HPLC/EC): The cells of the assay may be any cell that produces NADPH, particularly mammalian cells and yeast. The percentage of live cells may be determined by the amount of ME produced.
The ME produced inside the cells is extruded into the extracellular medium. This conversion mediated by the antioxidant system can be measured in the extracellular medium without the need for cellular extract. HPLC electrochemical detector was used to quantify the conversion of HEDS into mercaptoethanol in mammalian cells in tissue culture. […]

human HCT116 cells [1] = system: human HCT116 cells
human HCT116 cells [2] = assay type: cell-based
human cells = assay type: cell-based

| Compound | toxic effect on cells (live cells) | survival of cells (arsenite toxicity) (human HCT116 cells [1]) | HEDS conversion (human HCT116 cells [2]) | decrease of the ME peak (HEDS conversion) (human cells) [%] |
| --- | --- | --- | --- | --- |
| OCCSSCCO [HEDS, hydroxyethyldisulfide] | no toxic effect on cells |  |  |  |
| arsenite |  | concentration dependent decrease in the survival | concentration dependent decrease in HEDS conversion | ~70 |
